The source made the active and inactive calls. No cut-off for these calls is given here.
Experiments:
[1] = target: Amyloid-beta precursor protein (Homo sapiens) (UniProt P05067); test: Inhibition of amyloid beta (1 to 42 ) (unknown origin) self-induced aggregation at 25 uM by thioflavin-T fluorescence method relative to control
[2] = Effect on APP protein expression in pEGFP-N1-APP plasmid transfected mouse HT-22 cells assessed as decrease in fluorescence intensity at 5 uM incubated for 24 hrs by fluorescence microscopic analysis (reference value: 30.7); format: functional
[3] = target: Amyloid-beta precursor protein (Homo sapiens) (UniProt P05067); test: Inhibition of Cu2+-induced amyloid beta (1 to 42) (unknown origin) aggregation at 25 uM by thioflavin-T fluorescence method relative to control
[4] = Inhibition of LPS-induced TNFalpha production in mouse BV-2 cells assessed as TNFalpha level at 5 uM by ELISA analysis relative to control; format: functional
[5] = Inhibition of LPS-induced NO production in mouse BV-2 cells at 5 uM by Griess reaction method relative to control; format: functional
PC-12 [6] = test: Neuroprotective activity against H2O2-induced cytotoxicity in rat PC-12 cells assessed as increase in cell viability at 10 uM by MTT assay relative to control; format: functional
[7] = Cytotoxicity against mouse HT-22 cells assessed as reduction in cell viability by MTT assay; format: toxicity, cell-based
Acetylcholinesterase [8] = target: T1, Acetylcholinesterase (Rattus norvegicus, UniProt P37136); test: Inhibition of rat cortex AChE using acetylthiocholine as substrate incubated for 15 mins by DTNB reagent based Ellman's method; format: tissue-based
T1 sequence (P37136 whole entry): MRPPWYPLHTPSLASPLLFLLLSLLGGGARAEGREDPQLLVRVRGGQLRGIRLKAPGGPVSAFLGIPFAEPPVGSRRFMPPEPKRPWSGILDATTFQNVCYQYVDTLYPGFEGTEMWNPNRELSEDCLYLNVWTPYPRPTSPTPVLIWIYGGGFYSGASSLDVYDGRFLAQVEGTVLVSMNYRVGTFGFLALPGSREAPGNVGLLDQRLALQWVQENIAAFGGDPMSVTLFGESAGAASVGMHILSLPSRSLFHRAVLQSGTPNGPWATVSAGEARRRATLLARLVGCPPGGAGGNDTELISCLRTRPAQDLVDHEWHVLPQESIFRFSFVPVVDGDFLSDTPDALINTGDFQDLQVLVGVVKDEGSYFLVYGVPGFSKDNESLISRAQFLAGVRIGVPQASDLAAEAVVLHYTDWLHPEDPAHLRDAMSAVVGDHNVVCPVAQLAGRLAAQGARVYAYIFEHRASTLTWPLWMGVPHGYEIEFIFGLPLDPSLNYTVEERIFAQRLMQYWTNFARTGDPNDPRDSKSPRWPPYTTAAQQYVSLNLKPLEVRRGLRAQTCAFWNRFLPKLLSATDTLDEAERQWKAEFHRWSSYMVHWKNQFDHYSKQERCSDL

[9] = Antioxidant activity assessed as trolox equivalent of ORAC radical scavenging activity by ORAC-FL assay; format: functional
[10] = Metal chelating activity assessed as Cu2+-compound complex formation by measuring maximum absorption wavelength shift in the presence of CuCl2 by UV-visible spectrometric analysis
L02 [11] = test: Cytotoxicity against human L02 cells assessed as decrease in cell viability measured upto 20 uM by MTT assay; format: toxicity, cell-based; settings: l02, 20 µM
[12] = Effect on tau protein expression in pRK5-GFP-Tau plasmid transfected mouse HT-22 cells assessed as reduction in fluorescence intensity at 10 uM incubated for 24 hrs by fluorescence microscopic analysis (reference value: 36.8); format: functional
[13] = Permeability of compound at 100 ug/mL by PAMPA-BBB assay
[14] = Effect on APP protein expression in pEGFP-N1-APP plasmid transfected mouse HT-22 cells assessed as decrease in fluorescence intensity at 10 uM incubated for 24 hrs by fluorescence microscopic analysis (reference value: 30.7); format: functional
[15] = Effect on tau protein expression in pRK5-GFP-Tau P301L plasmid transfected mouse HT-22 cells assessed as reduction in fluorescence intensity at 5 uM by fluorescence microscopic analysis (reference value: 35.0); format: functional
L02 [16] = test: Cytotoxicity against human L02 cells assessed as decrease in cell viability at 40 uM by MTT assay relative to control; format: toxicity, cell-based; settings: l02, 40 µM
[17] = Effect on tau protein expression in pRK5-GFP-Tau P301L plasmid transfected mouse HT-22 cells assessed as reduction in fluorescence intensity at 10 uM by fluorescence microscopic analysis (reference value: 35.0); format: functional
[18] = Effect on tau protein expression in pRK5-GFP-Tau P301L plasmid transfected mouse HT-22 cells assessed as reduction in fluorescence intensity at 20 uM by fluorescence microscopic analysis (reference value: 35.0); format: functional
L02 [19] = test: Hepatoprotective activity against H2O2-induced cytotoxicity in human L02 cells assessed as increase in cell viability at 10 uM by MTT assay; format: functional
[20] = Inhibition of LPS-induced TNFalpha production in mouse BV-2 cells assessed as TNFalpha level at 10 uM by ELISA analysis relative to control; format: functional
[21] = Inhibition of LPS-induced TNFalpha production in mouse BV-2 cells assessed as TNFalpha level at 10 uM by ELISA analysis; format: functional
Cholinesterase = Cholinesterase (Homo sapiens, UniProt P06276); test: Inhibition of human serum BuChE using butyrylthiocholine as substrate incubated for 15 mins by DTNB reagent based Ellman's method; format: cell-free
Chain of Cholinesterase (P06276 whole entry): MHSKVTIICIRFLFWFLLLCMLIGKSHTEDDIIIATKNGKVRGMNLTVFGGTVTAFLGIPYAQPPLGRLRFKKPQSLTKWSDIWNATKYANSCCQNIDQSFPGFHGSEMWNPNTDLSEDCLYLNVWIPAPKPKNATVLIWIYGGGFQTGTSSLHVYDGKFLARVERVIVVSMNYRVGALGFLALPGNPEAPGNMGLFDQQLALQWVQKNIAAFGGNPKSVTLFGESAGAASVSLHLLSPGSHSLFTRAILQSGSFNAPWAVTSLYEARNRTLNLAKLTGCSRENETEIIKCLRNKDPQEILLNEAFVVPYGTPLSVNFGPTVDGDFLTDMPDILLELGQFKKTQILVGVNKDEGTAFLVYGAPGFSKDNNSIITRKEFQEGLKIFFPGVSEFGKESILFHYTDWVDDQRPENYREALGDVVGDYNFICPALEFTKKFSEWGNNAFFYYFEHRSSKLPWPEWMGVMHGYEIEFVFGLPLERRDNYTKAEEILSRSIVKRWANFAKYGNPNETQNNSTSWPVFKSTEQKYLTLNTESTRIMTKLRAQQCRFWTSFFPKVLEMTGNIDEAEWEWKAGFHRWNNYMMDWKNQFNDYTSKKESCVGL

[22] = target: Amyloid-beta precursor protein (Homo sapiens) (UniProt P05067); test: Inhibition of amyloid beta (1 to 42) (unknown origin) self-induced fibril formation at 25 uM incubated for 24 hrs by transmission electron microscopic analysis
L02 [23] = test: Hepatoprotective activity against H2O2-induced cytotoxicity in human L02 cells assessed as increase in cell viability at 20 uM by MTT assay; format: functional
Rattus norvegicus = species: Rattus norvegicus; test: Selectivity index, ratio of IC50 for inhibition of rat serum butyrylcholine esterase to IC50 for inhibition of rat cortex AChE
HT-22 = test: Effect on APP protein expression in pEGFP-N1-APP plasmid transfected mouse HT-22 cells assessed as fluorescence intensity by measuring decrease in GFP level incubated for 24 hrs by western blot analysis; format: functional, cell-based; settings: dose 5-20 µM, DDE = dose-dependent effect
Acetylcholinesterase [24] = target: Acetylcholinesterase (Homo sapiens, UniProt P22303); test: Pseudo-irreversible inhibition of human AChE assessed as restoration of enzyme activity at 0.1 time of IC50 concentration incubated for 120 mins by dilution method relative to control; parameters: scale not given: the % may be the effect or the level left
Chain of Acetylcholinesterase (Homo sapiens, UniProt P22303) (P22303 whole entry): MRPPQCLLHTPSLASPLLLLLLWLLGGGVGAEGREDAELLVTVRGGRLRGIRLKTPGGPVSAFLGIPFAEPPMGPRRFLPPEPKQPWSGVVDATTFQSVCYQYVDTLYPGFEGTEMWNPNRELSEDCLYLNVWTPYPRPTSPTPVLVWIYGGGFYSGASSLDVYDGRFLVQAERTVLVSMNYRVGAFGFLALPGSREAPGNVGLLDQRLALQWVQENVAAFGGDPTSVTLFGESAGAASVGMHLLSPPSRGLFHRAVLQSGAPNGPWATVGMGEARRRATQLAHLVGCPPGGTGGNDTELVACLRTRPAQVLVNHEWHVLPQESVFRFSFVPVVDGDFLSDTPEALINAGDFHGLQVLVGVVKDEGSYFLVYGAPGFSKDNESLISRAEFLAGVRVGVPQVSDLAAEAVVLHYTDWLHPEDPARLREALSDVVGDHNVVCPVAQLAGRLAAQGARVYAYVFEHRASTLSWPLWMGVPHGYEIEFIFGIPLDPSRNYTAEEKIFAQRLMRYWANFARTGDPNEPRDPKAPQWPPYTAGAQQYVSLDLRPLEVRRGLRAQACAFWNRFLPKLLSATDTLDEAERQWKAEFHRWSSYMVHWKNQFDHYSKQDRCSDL

PC-12 [25] = test: Cytotoxicity against rat PC-12 cells assessed as reduction in cell viability measured upto 40 uM incubated for 72 hrs by MTT assay; format: toxicity, cell-based; settings: pc-12, 72 h
[26] = target: Amyloid-beta precursor protein (Homo sapiens) (UniProt P05067); test: Disaggregation of Cu2+-induced amyloid beta (1 to 42) (unknown origin) aggregation at 25 uM by thioflavin-T fluorescence method relative to control
[27] = Metal chelating activity assessed as Al3+-compound complex formation by measuring maximum absorption wavelength shift in the presence of AlCl3 by UV-visible spectrometric analysis
[28] = Inhibition of LPS-induced TNFalpha production in mouse BV-2 cells assessed as TNFalpha level at 5 uM by ELISA analysis; format: functional

Chain of Amyloid-beta precursor protein (Homo sapiens) (P05067 whole entry): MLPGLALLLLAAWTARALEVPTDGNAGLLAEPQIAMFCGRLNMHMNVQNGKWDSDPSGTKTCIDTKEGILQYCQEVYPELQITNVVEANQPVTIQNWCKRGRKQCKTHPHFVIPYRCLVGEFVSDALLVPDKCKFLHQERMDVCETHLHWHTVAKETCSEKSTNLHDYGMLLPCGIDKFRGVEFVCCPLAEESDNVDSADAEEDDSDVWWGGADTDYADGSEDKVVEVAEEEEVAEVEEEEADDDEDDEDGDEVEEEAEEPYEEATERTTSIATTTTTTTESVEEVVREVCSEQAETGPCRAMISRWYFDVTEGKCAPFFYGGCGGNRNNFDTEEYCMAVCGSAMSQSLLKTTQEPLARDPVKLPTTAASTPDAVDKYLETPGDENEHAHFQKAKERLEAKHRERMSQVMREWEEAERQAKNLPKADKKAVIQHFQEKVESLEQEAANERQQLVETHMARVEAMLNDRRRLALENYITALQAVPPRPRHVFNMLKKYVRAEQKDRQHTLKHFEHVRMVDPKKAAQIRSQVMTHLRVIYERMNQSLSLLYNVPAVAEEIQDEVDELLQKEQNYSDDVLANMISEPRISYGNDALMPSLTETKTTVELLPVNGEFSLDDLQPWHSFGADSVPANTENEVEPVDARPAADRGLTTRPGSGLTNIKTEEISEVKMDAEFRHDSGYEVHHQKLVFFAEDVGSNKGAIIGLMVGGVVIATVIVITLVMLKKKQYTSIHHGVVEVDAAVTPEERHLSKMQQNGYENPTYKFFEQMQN

## CCN(C)C(=O)Oc1ccc(C2CC(=O)c3c(O)cc(OC(=O)N(C)CC)cc3O2)cc1 (stereo unspecified)
[1]
  inhibition: 60.9%
[2]
  Flu intensity: 21.9
[3]
  inhibition: 66.5%
[4]
  inhibition at 5 µM: 50.1%
[5]
  inhibition at 5 µM: 41.7%
PC-12 [6]
  Activity: 70.2%
[7]
  IC50: 289 µM
Acetylcholinesterase [8]
  IC50: 6.2 µM
[9]
  Activity: 1
[10]
  Activity: Active
L02 [11]
  Activity: Non-Toxic
[12]
  Flu intensity: 19
[13]
  Papp at 100 ug/mL: 16.8 ×10⁻⁶ cm/s
[14]
  Flu intensity: 15.5
[15]
  Flu intensity: 18.4
L02 [16]
  Activity: 73.2%
[17]
  Flu intensity: 9.28
[18]
  Flu intensity: 3.88
L02 [19]
  Activity: 68.7%
[20]
  inhibition at 10 µM: 68.7%
[21]
  Activity: 532 pg/mL
Cholinesterase
  IC50: 20.3 µM
[22]
  inhibition: Active
L02 [23]
  Activity: 77.3%
Rattus norvegicus
  Ratio IC50: 4.9
HT-22
  Activity: Dde
Acetylcholinesterase [24]
  Activity: 81.7%
PC-12 [25]
  Activity: Non-Toxic
[26]
  Activity: 54.4%
[27]
  Activity: Active
[28]
  Activity: 848 pg/mL

Source: ChEMBL document CHEMBL5143570, “Development of naringenin-O-carbamate derivatives as multi-target-directed liagnds for the treatment of Alzheimer's disease” (Bioorg Med Chem Lett, 2022)
